Reference: US20250084080A1, “CRYSTALLINE AND SALT FORMS OF AN NLRP3 INHIBITOR” (BioAge Labs, Inc., priority 2023, published 2025)

Legend:
Type in all cases: physicochemical
[1] = Bulk stability (solid state, 1 week; HPLC, XRPD, IC, color); design: key to CL (color): A: no change of color; B: slight discoloration; C: medium discoloration; D: strong discoloration; conditions: for Bulk (HPLC) Purity / Bulk (XRPD) / CL (color) / Stoichiometry by IC (Free form:HCl = 1:x): Solid state
Experimental: Bulk stability of free form Pattern B was evaluated at 25° C./92.5% RH in an open container, at 40° C./75% RH in an open container and at 60° C. in a tight container over 1 week.

[2] = Hygroscopicity by dynamic vapor sorption (DVS) at 25° C.; conditions: for Desorp. (%) / Sorp. (%): DVS 25° C.
Experimental: Dynamic vapor sorption (DVS) was performed on an Intrinsic, Advantage or Adventure with an oven temperature of 25° C. using water as a solvent. The sample mass was about 5-10 mg using the following method: • Cycle: 40-0-95-0-40% RH • Stage Step: 10% • Equilibrium: 0.002 dm/dt (%/min) • Minimum dm/dt stability duration: 60 min • Maximum dm/dt stage time: 360 min. Hygroscopicity of free form Pattern B was evaluated by dynamic vapor sorption (DVS) test at 25° C. […] It absorbed about 0.8% water at 80% RH at 25° C.

[3] = Solubility at 37° C. in buffers and biorelevant media, XRPD of residual solid; conditions: for solubility at 2 h / solubility at 24 h: thermodynamic from solid
Experimental: Solubility of BAL-0748 free form Pattern B was investigated in pH 1.2 HCl buffer, pH 4.5 50 mM acetate buffer, pH 6.8 50 mM phosphate buffer, water, pH 1.6 FaSSGF, pH 6.5 FaSSIF-v1, pH 5.0 FeSSIF-v1 and 2% HPMC+1% Pluronic F68 in pH 4.5 50 mM acetate buffer at 37° C. for 2 h and 24 h. Residual solids after the solubility test were analyzed by XRPD.
Solubility of the free form Pattern A, the HCl salt Pattern A, the phosphate salt Pattern A, and the sodium salt Pattern A was measured in pH 1.2 HCl buffer, pH 4.5 acetate buffer (50 mM), pH 6.8 phosphate buffer (50 mM), water, pH 1.6 FaSSGF, pH 6.5 FaSSIF-v1, pH 5.0 FeSSIF-v1, and 2% HPMC+1% Pluronic F68 in pH 4.5 acetate buffer (50 mM) at 37° C. for 2 hours and 24 hours.
10.4 mg of the free form Pattern A, 10.0 mg of the free form Pattern B, 10.8 mg of the HCl salt Pattern A, 12.2 mg of the phosphate salt Pattern A, or 10.5 mg of the sodium salt Pattern A was weighed into a 20 mL glass vial, respectively. 5 mL of solubility medium was added. The salt amount used was equivalent to 10 mg anhydrous free form. Obtained suspensions were stirred at 37° C. at 400 rpm and sampled at 2 hours and at 24 hours. The samples were centrifuged at 37° C. at 14,000 rpm for 5 min. Supernatants were analyzed by HPLC and PH meter for solubility and pH value, respectively. Residual solids (wet cakes) from the 24 hours samples were also characterized by XRPD to determine physical form.

[4] = 25° C./92.5% RH open, 40° C./75% RH open, 60° C. tight container
[5] = aqueous buffer, pH 4.5 acetate buffer (50 mM), 37° C.
[6] = aqueous buffer, pH 6.8 phosphate buffer (50 mM), 37° C.
[7] = aqueous with cosolvent or surfactant or cyclodextrin, 2% HPMC + 1% Pluronic F68 in pH 4.5 acetate buffer (50 mM), 37° C.
[8] = fassgf or other biorelevant, FaSSGF, pH 1.6, 37° C.
[9] = simulated gastric fluid, pH 1.2 HCl buffer, 37° C.

For `CCOc1cc(C(=O)N(C)Cc2cnc(CO)c3cn[nH]c23)ccc1-c1cc(F)cc(F)c1.Cl` [HCl salt Pattern A, 2-ethoxy-3′,5′-difluoro-N-((4-(hydroxymethyl)-1H-pyrazolo[4,3-c]pyridin-7-yl)methyl)-N-methyl-[1,1′-biphenyl]-4-carboxamide hydrochloric acid salt], the “Bulk stability, chemical and physical” value [1, 4] was “chemically and physically stable”, the “Degradation by HPLC” value [1, 4] was “no obvious degradation” and the “Form change by XRPD” value [1, 4] was “no form change”. The “Bulk (HPLC) Purity” value ([1]; 25° C./92.5% RH, open) was 99.1%, the “Bulk (XRPD)” value ([1]; 25° C./92.5% RH, open) was “No form change” and the “CL (color)” value ([1]; 25° C./92.5% RH, open) was “A”. For the same molecule, the “Stoichiometry by IC (Free form:HCl = 1:x)” value ([1]; 25° C./92.5% RH, open) was 0.97, the “Bulk (HPLC) Purity” value ([1]; 40° C./75% RH, open) was 98.9% and the “Bulk (XRPD)” value ([1]; 40° C./75% RH, open) was “No form change”. The “CL (color)” value ([1]; 40° C./75% RH, open) was “A”, the “Stoichiometry by IC (Free form:HCl = 1:x)” value ([1]; 40° C./75% RH, open) was 0.99 and the “Bulk (HPLC) Purity” value ([1]; 60° C., closed) was 98.9%. For the same molecule, the “Bulk (XRPD)” value ([1]; 60° C., closed) was “No form change”, the “CL (color)” value ([1]; 60° C., closed) was “A” and the “Stoichiometry by IC (Free form:HCl = 1:x)” value ([1]; 60° C., closed) was 0.97. For the same molecule, the “Desorp. (%)” value ([2]; 0% RH, 1st desorption) was 0.51%, the “Sorp. (%)” value ([2]; 0% RH, 1st sorption) was 0.51% and the “Desorp. (%)” value ([2]; 0% RH, 2nd desorption) was 0.15%. The “Sorp. (%)” value ([2]; 0% RH, 2nd sorption) was 0.15%, the “Desorp. (%)” value ([2]; 10% RH, 1st desorption) was 0.61% and the “Sorp. (%)” value ([2]; 10% RH, 1st sorption) was 0.61%. For the same molecule, the “Desorp. (%)” value ([2]; 10% RH, 2nd desorption) was 0.24%, the “Sorp. (%)” value ([2]; 10% RH, 2nd sorption) was 0.20% and the “Desorp. (%)” value ([2]; 20% RH, 1st desorption) was 0.65%. For the same molecule, the “Sorp. (%)” value ([2]; 20% RH, 1st sorption) was 0.68%, the “Desorp. (%)” value ([2]; 20% RH, 2nd desorption) was 0.28% and the “Sorp. (%)” value ([2]; 20% RH, 2nd sorption) was 0.24%. For the same molecule, the “Desorp. (%)” value ([2]; 30% RH, 1st desorption) was 0.69%, the “Sorp. (%)” value ([2]; 30% RH, 1st sorption) was 0.78% and the “Desorp. (%)” value ([2]; 30% RH, 2nd desorption) was 0.35%. The “Sorp. (%)” value ([2]; 30% RH, 2nd sorption) was 0.27%, the “Desorp. (%)” value ([2]; 40% RH, 1st desorption) was 0.72% and the “Sorp. (%)” value ([2]; 40% RH, 1st sorption) was 0.75%. The “Desorp. (%)” value ([2]; 40% RH, 2nd desorption) was 0.42%, the “Sorp. (%)” value ([2]; 40% RH, 2nd sorption) was 0.29% and the “Sorp. (%)” value ([2]; 50% RH, 1st sorption) was 0.80%. The “Desorp. (%)” value ([2]; 50% RH, 2nd desorption) was 0.54%, the “Sorp. (%)” value ([2]; 60% RH, 1st sorption) was 0.85% and the “Desorp. (%)” value ([2]; 60% RH, 2nd desorption) was 0.68%. The “Sorp. (%)” value ([2]; 70% RH, 1st sorption) was 0.96%, the “Desorp. (%)” value ([2]; 70% RH, 2nd desorption) was 0.84% and the “Sorp. (%)” value ([2]; 80% RH, 1st sorption) was 1.00%. For the same molecule, the “Desorp. (%)” value ([2]; 80% RH, 2nd desorption) was 1.07%, the “Sorp. (%)” value ([2]; 90% RH, 1st sorption) was 1.37% and the “Desorp. (%)” value ([2]; 90% RH, 2nd desorption) was 1.54%. The “Sorp. (%)” value ([2]; 95% RH, 1st sorption) was 2.20%, the “Desorp. (%)” value ([2]; 95% RH, 2nd desorption) was 2.20% and the “XRPD after DVS test” value ([2]; DVS at 25° C.) was “No form change”. For the same molecule, the “Water absorbed at 80% RH” value ([2]; DVS at 25° C., 80% RH) was “It absorbed 1.0%”, the “pH of supernatant at 24 h” value ([3]; 2% HPMC + 1% Pluronic F68 in pH 4.5 acetate buffer (50 mM), 37° C.) was “(4.4)” and the “Solubility compared with the free form Pattern A” value ([3]; 2% HPMC+1% Pluronic F68 in acetate buffer (pH 4.5)) was “comparable solubility”. The “pH of supernatant at 24 h” value ([3]; FaSSGF, pH 1.6, 37° C.) was “(1.5)”, the “pH of supernatant at 24 h” value ([3]; FaSSIF-v1, pH 6.5, 37° C.) was “(6.3)” and the “pH of supernatant at 24 h” value ([3]; FeSSIF-v1, pH 5.0, 37° C.) was “(4.9)”. For the same molecule, the “pH of supernatant at 24 h” value ([3]; Water, 37° C.) was “(2.5)”, the solubility at 2 h [3, 5] was 14.4 µg/mL and the solubility at 24 h [3, 5] was 10 µg/mL. For the same molecule, the solubility at 2 h [3, 6] was 3.3 µg/mL, the solubility at 24 h [3, 6] was 2.3 µg/mL and the solubility at 2 h [3, 7] was 29.5 µg/mL. It also gave a solubility at 24 h [3, 7] of 26.7 µg/mL, a solubility at 2 h [3, 8] of 556 µg/mL and a solubility at 24 h [3, 8] of 522 µg/mL. The “pH of supernatant at 24 h” value ([3]; pH 1.2 HCl buffer, 37° C.) was “(1.2)”, the “pH of supernatant at 24 h” value ([3]; pH 4.5 acetate buffer (50 mM), 37° C.) was “(4.3)” and the “Higher solubility compared with the free form Pattern A” value ([3]; pH 5.0 FeSSIF-v1, 2 h) was 1 fold. For the same molecule, the “pH of supernatant at 24 h” value ([3]; pH 6.8 phosphate buffer (50 mM), 37° C.) was “(6.7)”, the “Solubility compared with the free form Pattern A” value ([3]; pure water) was “obviously higher solubility” and the solubility at 2 h [3, 9] was 362 µg/mL. The solubility at 24 h [3, 9] was 277 µg/mL, the solubility at 2 h ([3]; FaSSIF-v1, pH 6.5, 37° C.) was 11.8 µg/mL and the solubility at 24 h ([3]; FaSSIF-v1, pH 6.5, 37° C.) was 8.4 µg/mL. For the same molecule, the solubility at 2 h ([3]; FeSSIF-v1, pH 5.0, 37° C.) was 238 µg/mL, the solubility at 24 h ([3]; FeSSIF-v1, pH 5.0, 37° C.) was 151 µg/mL and the solubility at 2 h ([3]; Water, 37° C.) was 568 µg/mL. The solubility at 24 h ([3]; Water, 37° C.) was 504 µg/mL.
